Measured values from article PMC5838563, “Compounds producing an effective combinatorial regimen for disruption of HIV‐1 latency” (EMBO Molecular Medicine, 2017).

Legend:
[1] = test system: IL‐2 production and CD69 in primary cells; design: method as in previous results (reference not given); conditions: 10 nM PEP005, primary cells; ref previous results (reference not given); cited from earlier work
[2] = test system: HIV‐1 LTR (Jurkat^Tat LTR‐DsRed clone #11); experiment: mdHIV LTR‐DsRed reporter assay, clone #11; type: cell-based
From the text: HIV‐1 tends to integrate into actively transcribed regions of the host genome (Jordan et al, 2003; Lewinski et al, 2006; Ikeda et al, 2007). Each HIV‐1‐infected patient carries viral DNA integrated at different chromosomal locations, and as we have previously shown, the site of viral integration influences how latently infected T cells respond to different stimuli (Hashemi et al, 2016). Therefore, an ideal LRA should be capable of disrupting latency in cell models carrying integrated viral reporters at multiple different regions within the host genome. To assess this capability for the PH compounds, we used two additional previously described cell lines, designated Jurkat^Tat LTR‐DsRed clones #11, and #131, that carry a mini‐dual fluorescent HIV‐1 LTR reporter (mdHIV) at different chromosomal locations. The minivirus mdHIV has two fluorescent reporters in which DsRed expression is driven from the 5′ LTR, and eGFP is constitutively expressed from an internal EIF‐1α promoter (Fig 5A). […]
Figure 5 Effect of PH02 on HIV provirus integrated at different chromosomal locations • A The effect of PH compounds was analyzed using clonal lines bearing single‐copy integrations of the mini‐dual fluorescent HIV‐1 LTR reporter, md‐HIV, where GFP is constitutively expressed from the EIF‐1α internal promoter, and DsRed from the 5′ LTR. • B Fluorescence‐activated cell sorting (FACS) of cells bearing md‐HIV provirus indicates expression of EIF‐1α‐GFP and LTR‐dsRed. Stimulation of the md‐HIV lines generally causes a shift of the fluorescence profile from GFP^+/DsRed^− toward GFP^+/DsRed^+. • C, D Clone 11 or clone 131 was treated with the indicated concentrations of PH02 (left panels) or PH02 in combination with 10 nM PEP005 (right panels) for 24 h and cells analyzed by flow cytometry. Results presented as Δmean fluorescence intensity (ΔMFI) of DsRed expression and fold increase in DsRed expression for solo and combination treatments, respectively. Mean and SE are determined from three biological replicates (n = 3) and technical duplicates. […]

Structure (SMILES)	CD69 [1]	IL‐2 production [1]	concentration reactivating viral transcription (LTR‐DsRed, ∆MFI) ([2]; PH02 alone, 24 h, serial dilutions 28–0.2 μM)	PH02 concentration producing increased effects on HIV‐1 LTR transcription with PEP005 ([2]; in combination with 10 nM PEP005, 24 h)
C/C=C(/C)C(=O)O[C@H]1C(C)=C[C@]23C(=O)[C@@H](C=C(CO)[C@@H](O)[C@]12O)[C@H]1[C@@H](C[C@H]3C)C1(C)C [PEP005, ingenol‐3‐angelate, reference compound]	does induce upregulation of CD69	does not cause	–	–
CC(=O)Oc1ccccc1N(C=C1Sc2ccccc2C1=O)C(C)=O [PH02, 2‐{acetyl[(3‐oxo‐1‐benzothien‐2(3H)‐ylidene)methyl]amino}phenyl acetate]	–	–	above 1.75 μM	above 1.75 μM
